From the supplement of paper PMC9386025

Legend:
Assay in all cases: drug sensitivity score (DSS) (DSS (dimensionless)); higher = more sensitive (stronger drug response)
[1] = test system: FIMM-PDC4 (patient-derived ovarian cancer cells); conditions: genetic perturbation: none (patient-derived cell culture)
Method in brief: (§1)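 Cells, either patient-derived cultures or ovarian cancer cell lines given 100 ng/ml doxycycline for no less than three days to induce shRNA, went into 384-well plates at 1 000 – 1 500 per well over drugs pre-plated in five concentrations across a 10,000-fold range. The plates were held for three days at 37 °C with 5.0 % CO2. Cell viability was then taken from CellTiter-Glo luminescence on a PHERAstar FS. For each drug, a drug sensitivity score from its dose-response curve was obtained by a method described earlier.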

[2] = test system: JHOS2
Method in brief: as §1

[3] = test system: FIMM-PDC1 (patient-derived ovarian cancer cells); conditions: genetic perturbation: none (patient-derived cell culture)
Method in brief: as §1

[4] = test system: OVSAHO
Method in brief: as §1

[5] = test system: FIMM-PDC6 (patient-derived ovarian cancer cells); conditions: genetic perturbation: none (patient-derived cell culture)
Method in brief: as §1

[6] = test system: Kuramochi
Method in brief: as §1

[7] = test system: FIMM-PDC5 (patient-derived ovarian cancer cells); conditions: genetic perturbation: none (patient-derived cell culture)
Method in brief: as §1

[8] = test system: FIMM-PDC3 (patient-derived ovarian cancer cells); conditions: genetic perturbation: none (patient-derived cell culture)
Method in brief: as §1

[9] = test system: FIMM-PDC7 (patient-derived ovarian cancer cells); conditions: genetic perturbation: none (patient-derived cell culture)
Method in brief: as §1

[10] = genetic perturbation: DOX-induced PTK7 shRNA knockdown
[11] = genetic perturbation: DOX-induced control shRNA

Row | SMILES | drug sensitivity score [1] | drug sensitivity score [2, 10] | drug sensitivity score [2, 11] | drug sensitivity score [3] | drug sensitivity score [4, 10] | drug sensitivity score [4, 11] | drug sensitivity score [5] | drug sensitivity score [6, 10] | drug sensitivity score [6, 11] | drug sensitivity score [7] | drug sensitivity score [8] | drug sensitivity score [9]
1 | Cn1ncc(Cl)c1-c1cc(C(=O)N[C@H](CN)Cc2ccc(F)c(F)c2)oc1Cl [Uprosertib] | 5 | 0.6 | 0.2 | 1.9 | < 0 | 2.5 | 6.8 | 1.55 | < 0 | 8.9 | < 0 | 6.5
2 | C=CC(=O)N1CC/C(=C\c2ccc(F)c([N+](=O)[O-])c2)C(=O)/C(=C/c2ccc(F)c([N+](=O)[O-])c2)C1 [VLX1570] | 16.9 | 25.9 | 15.3 | 12.1 | 23.2 | 19.4 | 19.6 | 23.4 | 16.4 | 22.3 | 18.5 | 20.5
3 | CNC(=O)c1ccccc1Nc1cc(Nc2ccc(N3CCOCC3)cc2OC)ncc1C(F)(F)F [VS-4718] | 9.2 | 5.9 | 3.7 | 5.4 | 5.7 | 9.9 | 10.3 | 10.8 | 4.8 | 8 | 3.8 | 5.4
4 | CCCCC(=O)OCC(=O)[C@]1(O)Cc2c(O)c3c(c(O)c2[C@@H](O[C@H]2C[C@H](NC(=O)C(F)(F)F)[C@H](O)[C@H](C)O2)C1)C(=O)c1c(OC)cccc1C3=O [Valrubicin] | 7.7 | 5.7 | 7.5 | 5.75 | 6.7 | 5.8 | 7.2 | 5.25 | 5.1 | 8 | 7.3 | 7
5 | C[C@@H]1COC(Nc2ccc3ncnc(Nc4ccc(OCc5nccs5)c(Cl)c4)c3c2)=N1 [Varlitinib] | 9.5 | < 0 | < 0 | 1.1 | 1.2 | < 0 | 5.2 | 0.05 | < 0 | 12.6 | 8.6 | 6.9
6 | O=C(/C=C\n1cnc(-c2cc(C(F)(F)F)cc(C(F)(F)F)c2)n1)NNc1ccccn1 [Verdinexor] | 11.2 | 11.3 | 7.7 | 3.7 | 6.1 | 3.2 | 11.7 | 4.4 | 5.2 | 11 | 10.9 | 11.5
7 | CC[C@]1(O)C[C@@H]2CN(CCc3c([nH]c4ccccc34)[C@@](C(=O)OC)(c3cc4c(cc3OC)N(C)[C@H]3[C@@](O)(C(=O)OC)[C@H](OC(C)=O)[C@]5(CC)C=CCN6CC[C@]43[C@@H]65)C2)C1 [Vinblastine] | 7.6 | 3.7 | 9.7 | 15.3 | 2 | 9 | 0.7 | 2.8 | 3.9 | 8.2 | 13 | 8.9
8 | CCC1=C[C@@H]2CN(C1)Cc1c([nH]c3ccccc13)[C@@](C(=O)OC)(c1cc3c(cc1OC)N(C)[C@H]1[C@@](O)(C(=O)OC)[C@H](OC(C)=O)[C@]4(CC)C=CCN5CC[C@]31[C@@H]54)C2 [Vinorelbine] | 26.7 | 19.4 | 17.1 | 19.2 | 22.6 | 18.5 | 18.6 | 20.3 | 7.2 | 27.2 | 26.2 | 12.8
9 | CNC(=O)c1cccc(-c2ccc3c(N4CCOC[C@@H]4C)nc(N4CCOC[C@@H]4C)nc3n2)c1 [Vistusertib] | 14.9 | 6.1 | 10.5 | 8.75 | 12.6 | 14.3 | 13 | 9.7 | 12.4 | 23.9 | 7.8 | 18.6
10 | CC[C@@H]1C(=O)N(C)c2cnc(Nc3ccc(C(=O)N[C@H]4CC[C@H](N5CCN(CC6CC6)CC5)CC4)cc3OC)nc2N1C(C)C [Volasertib] | 6 | 14.2 | 4.7 | 3.9 | 6.4 | 6.4 | 0.9 | 9.65 | 2.4 | 14.8 | 7 | 4.2
11 | O=C(CCCCCCC(=O)Nc1ccccc1)NO [Vorinostat] | 4.9 | 3.2 | 6.1 | 6 | 8.3 | 7.2 | 10.1 | 9.45 | 4.8 | 10.4 | 7.9 | 6.3
12 | Oc1nc(-c2ccc(C(F)(F)F)cc2)nc2c1CSCC2 [XAV-939] | 1.6 | < 0 | 0.7 | 1.1 | 2.1 | 3 | 4.1 | 0.35 | 0.1 | 6.3 | 1.5 | 10.8
13 | FC(F)c1nc2ccccc2n1-c1nc(N2CCOCC2)nc(N2CCOCC2)n1 [ZSTK474] | 13.9 | 6.6 | 8.1 | 8.5 | 13.5 | 14 | 11.8 | 13.8 | 7.5 | 17.4 | 10 | 15.7
